Measurements published in patent publication EP0369810A2, “PAF antagonists as anti-hyperendothelinemia agents” (Takeda Chemical Industries, Ltd., priority 1988, dated 1990).
Like-named read-outs stand apart in the source and are kept apart here. Marks after values point to notes of the source that are not given here.

Assays:
[1] = tested on: Male Spraque Dawley (Jcl) rats; assay: Effect on acute renal failure in rats (bilateral renal artery occlusion and reperfusion); format: in vivo, rat; conditions: oral dose of 30 mg/kg 1 hour prior to occlusion; 45 min occlusion, 20 hours reperfusion
Experimental: Male Spraque Dawley (Jcl) rats, 5 weeks old, were anesthetized with sodium pentobarbital (50 mg/kg, i.p.) and the renal artery was occluded bilaterally for 45 minutes followed by reperfusion for 20 hours. The blood was collected from the abdominal aorta under anesthesia for measurement of blood urea nitrogen (BUN).

[2] = tested on: glomerulonephritic rats; assay: Antiproteinuric action in glomerulonephritic rats; format: in vivo, rat; conditions: urinary excretion; 100 mg/kg p.o. once a day for 4 weeks
Experimental: Glomerulonephritis in rats was prepared according to the method by Nagamatsu et al. (Folia Pharmacol. Jpn. 78, 491, 1981). The mixture of 3 mg rabbit serum albumin (RSA) and the same amount of complete Freund's adjuvant was prepared. One ml/rat (3 mg/rat) of the mixture was first injected subcutaneously to 5 weeks old Spraque Dawley (Jcl) rats. 2 weeks later, RSA (1 mg/rat) was injected intravenously 3 times a week for 8 weeks. At the point of RSA injection for the first 4 weeks, urine was collected from the rat for 24 hours to measure urinary excretion of albumin and total protein. According to the value of albumin and total protein obtained, the rats were separated into 2 groups of the control and the treatment group. Then, the drug or vehicle was orally given once a day for 4 weeks and the 24 hour-urine at the 4 week of the dosage was collected for measurement of urinary albumin and total protein.

[3] = tested on: M-SHRsp; assay: Protective action on ischemic cerebral damage in M-SHRsp (bilateral carotid occlusion and reperfusion); format: in vivo, rat; conditions: 24 hour reperfusion
Experimental: Male malignant spontaneously hypertensive rats (M-SHRsp), 8 weeks old, were used. The carotid artery was occluded bilaterally for 1 hour under conscious condition followed by reperfusion for 24 hours. The drug was orally given 1 hour prior to the occlusion of the artery. The survival rate of rats was estimated during the 24 hour reperfusion.

[4] = tested on: cultured rat vascular smooth muscle cells; assay: Inhibition of endothelin-induced elevation of cytosolic calcium concentration (fura-2 fluorescence); format: cell-based; conditions: endothelin 4 x 10-^9 M, read-out: Inhibitory activity (%); for inhibition at 0.4 µM: compound 4 x 10^-7 M; for inhibition at 0.04 µM: compound 4 x 10^-8 M; for inhibition at 4 µM: compound 4 x 10^-6 M
Experimental: A glass cover slide coated with 4 µM fura-2-loaded cultured rat vascular smooth muscle cells was inserted into a quartz cuvette which contained 2.5 ml HEPES buffer (pH 7.2). On this occasion, the glass cover slide was fixed on a diagonal of 45° to the direction of excitation light. The fluoroscence was measured in a Hitachi F-4000 spectrofluorimeter. Wavelengths were set at 340 nm and 380 nm for excitation and 505 nm for emission. Fmax and Fmin were estimated after addition of ionomycin (2 µM; Calbiochem) as calcium ionophore and EGTA (8 mM) as calcium ion-chelator, respectively. The cytosolic calcium ion concentration [Ca^++]i values were calculated by Tsien et al. formula: [Ca^++]-i = kd*(F-Fmin)/(Fmax-F) with modifications assuming kd = 224 nM, i.e. by the formulas: • [Ca^++]i = kd*(R-Rmin)*Sf2/(Rmax-R)*Sb2 • R = [D(W1)-AutoF1]/[D(W2)-AutoF2] • D(Wi) : Determined value at wavelength for excitation W1 • D(W2) : Determined value at wavelength for excitation W2 • AutoF1 : self-fluoroscence at W1 • AutoF2 self-fluoroscence at W2 • Rmin : R in zero Ca^++ = Fmin (W1)/Fmin (W2) • Rmax : R in Ca^++-saturated concentration = Fmax (W1)/Fmax (W2) • Sf2 : strength of fluoroscence by free Ca^++ at W2 • Sb2 : strength of fluoroscence by bound Ca^++ at W2 The experiments were carried out as follows: PAF antagonists, the compounds [II], [IV] and [Vllla], were added to the solution in the cuvette. Incubation was conducted for 5 minutes and then endothelin (4 x 10-^9 M) was added to observe changes of strength of fluoroscence.

[5] = Acute toxicities; conditions: rat, in vivo
Experimental: PAF antagonists were administered to male Wistar rats (4-6 weeks old) to observe the acute toxicities.

[6] = tested on: endothelin; assay: Protective effects against endothelin-induced death in mice; format: in vivo; conditions: mouse, survival 1 h after endothelin
Experimental: (§1) Male SD-Jcl rats (5-6 weeks old) and male Jcl-ICR mice (5-6 weeks 01 d) were used without anesthetization.
(§2) Physiological saline or drug-dissolved physiological saline was given via the tail vein to a rat in a volume of 1 ml/kg and to a mouse in a volume of 5 ml/kg. Five minutes later, the same volume of endothelin (Peptide Institute; 5 nmol/kg)-dissolved physiological saline was intravenously given.
(§3) In the case of oral administration of a drug, the drug was given in 10 ml/kg of 5% gum arabic suspension one hour before the administration of endothelin.
(§4) One hour after the administration of endothelin, the survival rates were measured, and the effect of the drug was evaluated.

[7] = tested on: endothelin; assay: Protective effects against endothelin-induced death in rats; format: in vivo; conditions: rat, survival 1 h after endothelin
Experimental: as §1, §2, §3, §4

[8] = tested on: endothelin; assay: Protective effects against arrhythmia-inducing activity of endothelin in rats (electrocardiogram); format: in vivo, rat; conditions: anesthetized rats; for PVB counts (15 min.): premature ventricular beats; for VF incidence: ventricular fibrillation; for VT incidence: ventricular tachycardia
Experimental: Male SD-Jcl rats (9 weeks old) were anesthetized with pentobarbital (50 mg/kg, intraperitoneal injection), and electrocardiogram (Lead II) was monitored on a polygraph. A drug was dissolved in physiological saline and given via the tail vein in a volume of 1 ml/kg. Five minutes later, endothelin (5 nmol/kg) was intravenously administered. In the case of oral administration, a drug was given in 10 ml/kg of 5% gum arabic suspension one hour before the administration of endothelin.

[9] = sustained increase of cytosolic calcium
[10] = transient increase of cytosolic calcium
[11] = 100 mg/kg p.o. 1 h before endothelin 5 nmol/kg i.v.
[12] = 30 mg/kg i.v. 5 min before endothelin 5 nmol/kg i.v.
[13] = 30 mg/kg p.o. 1 h before endothelin 5 nmol/kg i.v.
[14] = 3 mg/kg i.v. 5 min before endothelin 5 nmol/kg i.v.
[15] = 1 mg/kg i.v. 5 min before endothelin 5 nmol/kg i.v.

In the case of `CCC[n+]1cc(Br)cc(C(=O)N(CCC(=O)NCCOC(=O)N2CCc3ccccc3C2)c2ccccc2)c1` [Compd [VIIIb]], the “Blood urea nitrogen (BUN)” value [1] is reported as 88 ± 2 mg/dL.

For `COc1cc2c(cc1OC)CCCC(C(=O)N1CCN(C(=O)c3cc(OC)c(OC)c(OC)c3)CC1)=C2` [Compd [IV], 1-(2,3-dimethoxy-6,7-dihydro-5H-benzocycloheptenyl-8-carbonyl)-4-(3,4,5-trimethoxybenzoyl)piperazine], the albumin [2] was 17 ± 11 mg/100 g/24 hr, the total protein [2] was 43 ± 16 mg/100 g/24 hr and the “Survival rate (24 hr)” value ([3]; 1 mg/kg p.o. 1 hour prior to occlusion) was 2/7. The “Survival rate (24 hr)” value ([3]; 10 mg/kg p.o. 1 hour prior to occlusion) was 6/7*, the “Survival rate (24 hr)” value ([3]; 10 mg/kg p.o. 1 hour prior to occlusion, listed as compound [IV]) was 6 out of 7 and the “Survival rate (24 hr)” value ([3]; 100 mg/kg p.o. 1 hour prior to occlusion) was 4/4*. For the same compound, the “Survival rate (24 hr)” value ([3]; 100 mg/kg p.o. 1 hour prior to occlusion, listed as compound [IV]) was “all out of 4”, the inhibition at 0.4 µM [4, 9] was 52.6% and the inhibition at 0.4 µM [4, 10] was 76.2%. For the same compound, the LD50 ([5]; po) was over 1000 mg/kg, the “Protective effect to death Survival Rate (%)” value (shortened to “Protective effect … (%)”) [6, 11] was 100** % and the “Protective effect to death Survival Total” value [6, 11] was 15/15.

For `CCCCCCCCCCCCCCCCCCNC(=O)OCC(COP(=O)([O-])OCC[n+]1ccsc1)OC` (stereo not drawn) [Compd [VI], 3-(N-n-octadenylcarbamoyloxy)-2-methoxypropyl 2-thiazolioethyl phosphate], the LD50 ([5]; iv, male Wistar rats) was over 50 mg/kg, the “Protective effect … (%)” value [6, 12] was 36* % and the “Protective effect to death Survival Total” value [6, 12] was 5/14.

In the case of `Cc1nnc2n1-c1sc(CCC(=O)N3CCOCC3)cc1C(c1ccccc1Cl)=NC2` [Compd [IX], reference compound], the “Protective effect … (%)” value [7, 13] is reported as 40** %, the “Protective effect to death Survival Total” value [7, 13] is reported as 6/15 and the “PVB counts (15 min.)” value [8, 13] is reported as 12±5. The VF incidence [8, 13] was 4/6**, the VT incidence [8, 13] was 4/6** and the “Protective effect … (%)” value [6, 13] was 53** %. The “Protective effect to death Survival Total” value [6, 13] was 8/15.

With `CCC[n+]1cc(Br)cc(C(=O)N(CCC(=O)NCCOC(=O)N2CCc3ccccc3C2)c2ccccc2)c1` [[VIIIa]] the inhibition at 0.4 µM [4, 9] was 100%, the inhibition at 0.04 µM [4, 9] was 72.1% and the inhibition at 4 µM [4, 10] was 78.2%. For the same compound, the inhibition at 0.4 µM [4, 10] was 64.2%.

With `CCCCCCCCCCCCCCCCCCNC(=O)OCC(COC(=O)N(Cc1cccc[n+]1CC)C(C)=O)OC.[Cl-]` (stereo not drawn) [Compd [II], 2-[N-acetyl-N-(2-methoxy-3-octadecylcarbamoyloxypropoxycarbonyl)-aminomethyl]-1-ethylpyridinium chloride] the “Protective effect … (%)” value [7, 14] was 94** %, the “Protective effect to death Survival Total” value [7, 14] was 15/16 and the “PVB counts (15 min.)” value [8, 15] was 9±8. For the same compound, the VF incidence [8, 15] was 2/9**, the VT incidence [8, 15] was 3/9** and the inhibition at 0.4 µM [4, 9] was 100%. It also gave an inhibition at 0.04 µM [4, 9] of 100%, an inhibition at 4 µM [4, 10] of 100% and an inhibition at 0.4 µM [4, 10] of 100%. For the same compound, the LD50 ([5]; iv, male Wistar rats) was over 20 mg/kg, the “Protective effect … (%)” value [6, 14] was 100** % and the “Protective effect to death Survival Total” value [6, 14] was 10/10.
